According to PubChem BioAssay AID1845215 (Molecular Pharmacology Branch, DTP, NCI, 2023):

Test system: SW 1271 complex tumor spheroid viability
Assay: Anticancer human tumor SW 1271 cell line growth inhibition;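 further: spheroids exposed to agents for seven days before readout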;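 on viability, T/C: percent of DMSO vehicle control luminescence so 100% = vehicle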
Conditions: for IC50: curve of first compound; for viability, T/C: stronger effect = lower value
Summary of the method: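 Complex spheroids of malignant cells with endothelial cells and mesenchymal stem cells; agents alone or combined, from near clinical Cmax (or 10 microM if unknown) down in half-log steps, 0.25% DMSO final.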

[1] = second compound 1 µM, first compound 0.0316 µM
[2] = second compound 1 µM, first compound 0.1 µM
[3] = second compound 1 µM, first compound 0.316 µM
[4] = second compound 1 µM, first compound 1 µM
[5] = second compound 1 µM, first compound 3.16 µM
[6] = second compound 1 µM, first compound 10 µM
[7] = second compound 3.16 µM, first compound 0.0316 µM
[8] = second compound 3.16 µM, first compound 0.1 µM
[9] = second compound 3.16 µM, first compound 0.316 µM
[10] = second compound 3.16 µM, first compound 1 µM
[11] = second compound 3.16 µM, first compound 3.16 µM
[12] = second compound 3.16 µM, first compound 10 µM
[13] = second compound 10 µM, first compound 0.0316 µM
[14] = second compound 10 µM, first compound 0.1 µM
[15] = second compound 10 µM, first compound 0.316 µM
[16] = second compound 10 µM, first compound 1 µM
[17] = second compound 10 µM, first compound 3.16 µM
[18] = second compound 10 µM, first compound 10 µM
[19] = second compound 31.6 µM, first compound 0.0316 µM
[20] = second compound 31.6 µM, first compound 0.1 µM
[21] = second compound 31.6 µM, first compound 0.316 µM
[22] = second compound 31.6 µM, first compound 1 µM
[23] = second compound 31.6 µM, first compound 3.16 µM
[24] = second compound 31.6 µM, first compound 10 µM
[25] = second compound 100 µM, first compound 0.0316 µM
[26] = second compound 100 µM, first compound 0.1 µM
[27] = second compound 100 µM, first compound 0.316 µM
[28] = second compound 100 µM, first compound 1 µM
[29] = second compound 100 µM, first compound 3.16 µM
[30] = second compound 100 µM, first compound 10 µM

| SMILES | IC50 (second compound 1 µM) | IC50 (second compound 3.16 µM) | IC50 (second compound 10 µM) | IC50 (second compound 31.6 µM) | IC50 (second compound 100 µM) | viability, T/C [1] | viability, T/C [2] | viability, T/C [3] | viability, T/C [4] | viability, T/C [5] | viability, T/C [6] | viability, T/C [7] | viability, T/C [8] | viability, T/C [9] | viability, T/C [10] | viability, T/C [11] | viability, T/C [12] | viability, T/C [13] | viability, T/C [14] | viability, T/C [15] | other results |
| --- | --- | --- | --- | --- | --- | --- | --- | --- | --- | --- | --- | --- | --- | --- | --- | --- | --- | --- | --- | --- | --- |
| CC(C)n1c(=O)n(C)c2cnc3cc(F)c(-c4ccc(OCCCN5CCCCC5)nc4)cc3c21 + Cn1nnc2c(C(N)=O)ncn2c1=O | > 10000 nM | > 10000 nM | 7490 nM | 4870 nM | 1040 nM | 99.6% | 90.9% | 93.2% | 101% | 99.6% | 54.7% | 101% | 92.5% | 98.8% | 102% | 88.4% | 50.9% | 87.1% | 97.7% | 94.3% | viability, T/C [16]: 79.9%; viability, T/C [17]: 75.6%; viability, T/C [18]: 41.6%; viability, T/C [19]: 93%; viability, T/C [20]: 84.5%; viability, T/C [21]: 86.1%; viability, T/C [22]: 76.8%; viability, T/C [23]: 63.5%; viability, T/C [24]: 29.5%; viability, T/C [25]: 70.5%; viability, T/C [26]: 69.6%; viability, T/C [27]: 64.2%; viability, T/C [28]: 51.5%; viability, T/C [29]: 31%; viability, T/C [30]: 24.9% |
| CC1COCCN1c1cc(-c2ccnn2C)c2ccnc(-c3ccn[nH]3)c2n1 (stereo not given) + Cn1nnc2c(C(N)=O)ncn2c1=O | 67.3 nM | 70.1 nM | 67.8 nM | 38.2 nM | < 31.6 nM | 71.4% | 38.7% | 15.1% | 6.03% | 3.67% | 3.45% | 76.6% | 38.2% | 11.3% | 5.45% | 3.38% | 2.94% | 73.8% | 37.9% | 12.3% | viability, T/C [16]: 5.29%; viability, T/C [17]: 2.98%; viability, T/C [18]: 3.83%; viability, T/C [19]: 55.4%; viability, T/C [20]: 23.2%; viability, T/C [21]: 9.1%; viability, T/C [22]: 4.96%; viability, T/C [23]: 3.48%; viability, T/C [24]: 3.25%; viability, T/C [25]: 33.5%; viability, T/C [26]: 12.6%; viability, T/C [27]: 6.3%; viability, T/C [28]: 3.95%; viability, T/C [29]: 3.48%; viability, T/C [30]: 2.85% |
| COc1ccc([C@@H](O)c2cc(-c3ncnc4cc(N5CCOCC5)ccc34)c(F)cc2Cl)nn1 + Cn1nnc2c(C(N)=O)ncn2c1=O | 799 nM | 1520 nM | 1810 nM | 1410 nM | 808 nM | 95.7% | 89.6% | 91.7% | 39.6% | 38.3% | 11% | 115% | 97.8% | 82.5% | 60.7% | 32.3% | 10% | 97.1% | 103% | 85.2% | viability, T/C [16]: 65.1%; viability, T/C [17]: 36.2%; viability, T/C [18]: 10.9%; viability, T/C [19]: 101%; viability, T/C [20]: 96.2%; viability, T/C [21]: 93.4%; viability, T/C [22]: 55.6%; viability, T/C [23]: 30.3%; viability, T/C [24]: 10.2%; viability, T/C [25]: 83.8%; viability, T/C [26]: 82.3%; viability, T/C [27]: 66.8%; viability, T/C [28]: 42.9%; viability, T/C [29]: 28.6%; viability, T/C [30]: 9.15% |
